# Measurements from patent US20130244879A1, “USE OF LIPO-CHITOOLIGOSACCHARIDES TO INITIATE EARLY FLOWERING AND FRUIT DEVELOPMENT IN PLANTS AND RELATED METHODS AND COMPOSITIONS” (NOVOZYMES BIOLOGICALS HOLDING A/S, priority 2003, published 2013).
# What was measured:
# Assay type in all cases: in vivo
# Marigold = test: Experiment 5: foliar application of LCO to bedding plants (Marigold)
# From the text: This is a growth room study. Seeds of garden plant species were selected on the basis of seed-purchase popularity (Norseco, Montreal), grown in trays of Pro-Mix (NB. trademarked name) Seeding Medium, and at some size were transplanted into trays of 36 and 32 wells containing the same medium. Growth proceeded under lights in the growth room. Some 2 weeks before expected flowering, 16 young plants were sprayed with each of various levels of LCO leaving control plants untreated. The results are presented in Table 5A on bud formation and where possible opened flowers.
# tomato crop = test: Trial 3: summer field trial, foliar LCO on tomato yield; details: for advanced fruiting over control: single application
# Procedure: An investigation was conducted to examine whether foliar applications of LCO led to increased yield in tomato crop production. To determine concentrations or strengths to be applicable, testing was conducted with a logarithmic increase in strength from 1 nanogram (ng) to 1000 ng/plant sprayed once, and on half, twice. The trial results are presented in the following FIGS. 11-13 and Tables 6 and 7. The parameter of interest was ripened fruit which was harvested 2 or 3 times a week, recording each time, both fruit weight and number of fruit per set of replicates. It was known that fruit arise from pollinated flowers and that an increase in the one leads to the other. FIG. 11 records, cumulative harvested (red) fruit per treatment. For the single LCO application it will be seen that the 10 and 100 ng/plant treatments have advanced fruiting by some 10 days over control (horizontal separation in weeks). That advance has allowed the plant to bear and ripen more fruit over the season for these treatments (see FIG. 11 note height over control and Tables 6 and 7 for actual weights and numbers harvested). Table 6 and FIG. 12 record harvested weight and numbers of ripened fruit over season and it can be seen that the average weight of the tomatoes is not different between treatments and control. Thus the increase in harvested weight was due to an increase in numbers harvested, in agreement with actual enumeration.
# Cherry tomato = test: Experiment 14: LCO soil application on cherry tomatoes
# Procedure: Cherry tomato seedlings (5-week old) were transplanted into 5″ pots in the greenhouse. LCO solutions were prepared with water and 50 ml/plant was applied to the soil in the pot after transplantation. Ripened fruit (orange or red) were collected 8 weeks after transplantation.
# [1] = 50 ml/16 plants of 3 × 10^−8M LCO
# [2] = 1 ng LCO per plant, applied once
# [3] = 1 ng LCO per plant, applied twice
# [4] = 10 ng LCO per plant, applied once
# [5] = 10 ng LCO per plant, applied twice
# [6] = 100 ng LCO per plant, applied once
# [7] = 100 ng LCO per plant, applied twice
# [8] = 1000 ng LCO per plant, applied once
# [9] = 1000 ng LCO per plant, applied twice
# [10] = single application of 10 ng LCO/plant
substance,measurement,setting,value
Lipo-chitooligosaccharides [LCO],plants with 4 flower buds per plant,Marigold; 50 ng treatment,2
same,Total Number of Marigold buds,Marigold; 20 ml/16 plants of 10^−7M LCO,26
same,Total Number of Marigold flower,Marigold; 20 ml/16 plants of 10^−7M LCO,0
same,Total Number of Marigold buds,Marigold; 20 ml/16 plants of 10^−8M LCO,25
same,Total Number of Marigold flower,Marigold; 20 ml/16 plants of 10^−8M LCO,2
same,Total Number of Marigold buds,Marigold; 20 ml/16 plants of 10^−9M LCO,24
same,Total Number of Marigold flower,Marigold; 20 ml/16 plants of 10^−9M LCO,1
same,Total Number of Marigold buds,Marigold; [1],34
same,Total Number of Marigold flower,Marigold; [1],3
same,Increase in No. of Tomatoes from 1 to 2 applications,tomato crop; 1 ng LCO per plant,21
same,Yield Increase for 2nd Application,tomato crop; 1 ng LCO per plant,0.00 Kg per plant
same,Cumulative Harvest to Sept 23. (24 plant Average),tomato crop; [2],Not as good as Control
same,Cumulative Yield (kg) to Sept 23. Total weight for 24 plants,tomato crop; [2],57.7200 kg
same,Total No. of Tomatoes per treatment,tomato crop; [2],300
same,Yield increase over Control,tomato crop; [2],0.0000 Kg per plant
same,Cumulative Harvest to Sept 23. (24 plant Average),tomato crop; [3],Not as good as Control
same,Cumulative Yield (kg) to Sept 23. Total weight for 24 plants,tomato crop; [3],63.8760 kg
same,Total No. of Tomatoes per treatment,tomato crop; [3],321
same,Increase in No. of Tomatoes from 1 to 2 applications,tomato crop; 10 ng LCO per plant,11
same,Yield Increase for 2nd Application,tomato crop; 10 ng LCO per plant,0.08 Kg per plant
same,Cumulative Harvest to Sept 23. (24 plant Average),tomato crop; [4],3.0093 Kg per plant
same,Cumulative Yield (kg) to Sept 23. Total weight for 24 plants,tomato crop; [4],72.2240 kg
same,Percent Yield inc. over Control,tomato crop; [4],17.7%
same,Total No. of Tomatoes per treatment,tomato crop; [4],363
same,Yield increase over Control,tomato crop; [4],0.4517 Kg per plant
same,Cumulative Harvest to Sept 23. (24 plant Average),tomato crop; [5],3.0905 Kg per plant
same,Cumulative Yield (kg) to Sept 23. Total weight for 24 plants,tomato crop; [5],74.1720 kg
same,Percent Yield inc. over Control,tomato crop; [5],12.6%
same,Total No. of Tomatoes per treatment,tomato crop; [5],374
same,Yield increase over Control,tomato crop; [5],0.3452 Kg per plant
same,Increase in No. of Tomatoes from 1 to 2 applications,tomato crop; 100 ng LCO per plant,−8
same,Yield Increase for 2nd Application,tomato crop; 100 ng LCO per plant,0.06 Kg per plant
same,Cumulative Harvest to Sept 23. (24 plant Average),tomato crop; [6],2.7280 Kg per plant
same,Cumulative Yield (kg) to Sept 23. Total weight for 24 plants,tomato crop; [6],65.4720 kg
same,Percent Yield inc. over Control,tomato crop; [6],6.7%
same,Total No. of Tomatoes per treatment,tomato crop; [6],351
same,Yield increase over Control,tomato crop; [6],0.1703 Kg per plant
same,Cumulative Harvest to Sept 23. (24 plant Average),tomato crop; [7],2.7917 Kg per plant
same,Cumulative Yield (kg) to Sept 23. Total weight for 24 plants,tomato crop; [7],67.0000 kg
same,Percent Yield inc. over Control,tomato crop; [7],1.7%
same,Total No. of Tomatoes per treatment,tomato crop; [7],343
same,Yield increase over Control,tomato crop; [7],0.0463 Kg per plant
same,Increase in No. of Tomatoes from 1 to 2 applications,tomato crop; 1000 ng LCO per plant,35
same,Yield Increase for 2nd Application,tomato crop; 1000 ng LCO per plant,0.35 Kg per plant
same,Cumulative Harvest to Sept 23. (24 plant Average),tomato crop; [8],2.6115 Kg per plant
same,Cumulative Yield (kg) to Sept 23. Total weight for 24 plants,tomato crop; [8],62.6760 kg
same,Percent Yield inc. over Control,tomato crop; [8],2.1%
same,Total No. of Tomatoes per treatment,tomato crop; [8],326
same,Yield increase over Control,tomato crop; [8],0.0538 Kg per plant
same,Cumulative Harvest to Sept 23. (24 plant Average),tomato crop; [9],2.9588 Kg per plant
same,Cumulative Yield (kg) to Sept 23. Total weight for 24 plants,tomato crop; [9],71.0120 kg
same,Percent Yield inc. over Control,tomato crop; [9],7.8%
same,Total No. of Tomatoes per treatment,tomato crop; [9],361
same,Yield increase over Control,tomato crop; [9],0.2135 Kg per plant
same,increase in numbers of tomatoes,tomato crop; [10],~20%
same,yield increase over the season,tomato crop; [10],17%
same,advanced fruiting over control,tomato crop; 10 ng/plant,~10 days
same,advanced fruiting over control,tomato crop; 100 ng/plant,~10 days
same,dose with best fruit enhancement at the early stage,Cherry tomato,10 ng per plant
